Each block holds one compound with its values, some of them ahead of it.
Tests used:
[1] = humans; cited from earlier work
[2] = according to the literature; cited from earlier work
[3] = rats; cited from earlier work
[4] = fortified foods, dual isotope techniques; cited from earlier work
[5] = Calcium, magnesium and zinc balance in rats receiving calcium free diet
Excerpt: Male Sprague-Dawley rats (about 6-7 weeks), with an initial weight between 220 g to 250 g, were randomly divided into different treatment groups. All the rats were housed in individual metabolic cages in a temperature-controlled room. Each rat received free access to the normal diet (Table 34) before the experiment. Both normal and calcium free diets (Table 34) were used in this set of studies. De-ionized water was provided ad libitum. All the rats were weighed before treatment.
In each study, there were seven treatment groups. […] Rats participating in the normal diet study received normal diet ad libitum throughout. Rats participating in the group of calcium free diet received the calcium free food ad libitum starting five days before and throughout treatment. In both study groups, animals received one dose a day for five days. […] Values of dosage and dietary intake were measured for the calculation of elemental balance. […] Daily elemental dosages, similar to that of human's, are 53.14 mg/kg for calcium, 0.38 to 55 mg/kg/day for magnesium and 0.017 to 2.5 mg/kg/day for zinc. […] The vehicle for preparing each dose was de-ionized water. The concentration of calcium in all dosage preparations was 15.94 mg/mL. One mL of each preparation was administered by gavage. Body weight, elemental dosage and diet consumption were recorded daily.
Animals were housed individually in a metabolic cage five days before the study. Food consumption was evaluated daily. Urine and feces were collected daily for four days and the content of calcium, magnesium and zinc was determined. On Day 5, each animal received its treatment. […] Immediately after blood collection, the animal was then sacrificed with an overdose of isoflourane. Each blood sample was centrifuged at 1900 rpm at room temperature; plasma was harvested and stored at −20° C. until analysis. Urine was measured daily; it was diluted with de-ionized water, filtered and an aliquot was stored at −20° C. until analysis. Daily fecal output was collected and lyophilized. Each sample was weighed and digested using a mixture of three volume of nitric acid and one volume of perchloric acid. For every gram of dried feces, 10 mL of acid mixture was added. Each sample was digested for three days. The volume of the digested sample was measured and an aliquot of the digest was stored at −20° C. until analysis. The content of calcium, magnesium and zinc in plasma, feces and urine were determined using ICP-OES.
Cumulated calcium balance and % cumulated net calcium balance were calculated using equations (1) and (2), except, the sum of daily intake and excretion was used for calculation. The balance for magnesium and zinc was also calculated using the concept of equations (1) and (2). Cumulated elemental balance and % cumulated net elemental balance were calculated in a similar fashion as described above.
All results were analyzed using two-way ANOVA. […] The data are presented as mean±S.D. and mean±S.E.M. in tables and figures, respectively.

Compound: O=C([O-])[O-].[Ca+2] [calcium carbonate]
- Amount of calcium absorbed (bioavailability) [1]: 24%

Compound: O=C([O-])CC(O)(CC(=O)[O-])C(=O)[O-].O=C([O-])CC(O)(CC(=O)[O-])C(=O)[O-].[Ca+2].[Ca+2].[Ca+2] [calcium citrate]
- Bioavailability of calcium [2]: 30%

Compound: [O]=[Mg] [magnesium oxide]
- Bioavailability of magnesium [3]: 50%

Compound: [O]=[Zn] [zinc oxide]
- Bioavailability of zinc [4]: approximately 24%

- Bioavailability of calcium compared to calcium carbonate ([5]; Tables 36 and 40, dependent on the diet condition): at least 2 fold
- Cumulative net percentage of calcium ([5]; calcium free diet, Day 1): −30.6 ± 51.3 ^ %
- Cumulative net percentage of calcium ([5]; calcium free diet, Day 2): −9.88 ± 26.5 ^ %
- Cumulative net percentage of calcium ([5]; calcium free diet, Day 3): 4.88 ± 24.0 ^ %
- Cumulative net percentage of calcium (calcium retention) ([5]; calcium free diet, Day 4): 11.1 ± 20.0 ^ %
Compound: Calcium Acetate

Source: patent US9308222B2, “Formulas comprising highly soluble elements and vitamins for the prevention and amelioration of osteoporosis” (priority 2008, dated 2016)
